Reference: ChEMBL document CHEMBL1201862, “PubChem BioAssay data set” (2004)
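Tested at 5 concentrations; 48 h exposure; 96-well plates; endpoints linearly interpolated, else capped at highest concentration. GI50 is the concentration that inhibits growth by half.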 The source made the active and inactive calls. Rule as the data show it: active = GI50 up to about 1.1 µM and inactive = higher.

Columns and labels:
Experiment in all cases: inhibition of tumour cell growth, NCI panel, 48 h
HT-29 = system: HT-29
HL-60 = system: HL-60
BT-549 = system: BT-549
UO-31 = system: UO-31
MCF7 = system: MCF7
OVCAR-4 = system: OVCAR-4
DU-145 = system: DU-145
EKVX = system: EKVX
UACC-257 = system: UACC-257
SK-OV-3 = system: SK-OV-3
HCT-116 = system: HCT-116
M14 = system: M14
MDA-MB-435 = system: MDA-MB-435
RPMI-8226 = system: RPMI-8226
NCI-H23 = system: NCI-H23
HOP-62 = system: HOP-62
U-251 = system: U-251
OVCAR-3 = system: OVCAR-3

Structure (SMILES)	GI50 (HT-29)	GI50 (HL-60)	GI50 (BT-549)	GI50 (UO-31)	GI50 (MCF7)	GI50 (OVCAR-4)	GI50 (DU-145)	GI50 (EKVX)	GI50 (UACC-257)	GI50 (SK-OV-3)	GI50 (HCT-116)	GI50 (M14)	GI50 (MDA-MB-435)	GI50 (RPMI-8226)	GI50 (NCI-H23)	GI50 (HOP-62)	GI50 (U-251)	GI50 (OVCAR-3)
C=CCOC1=C(OC(C)=O)C(=O)OC1C1COC(C)(C)O1 (stereo unspecified)	30.1 µM (inactive)	18.5 µM (inactive)	43.1 µM (inactive)	28.1 µM (inactive)	28.2 µM (inactive)	17.2 µM (inactive)	> 92.9 µM (inactive)	27.5 µM (inactive)	60.3 µM (inactive)	> 100 µM (inactive)	26.2 µM (inactive)	36 µM (inactive)	34.3 µM (inactive)	31.8 µM (inactive)	31.5 µM (inactive)	29.4 µM (inactive)	42.5 µM (inactive)	17.5 µM (inactive)
CC(NC1=CC(=O)c2cccnc2C1=O)C(O)c1ccccc1 (stereo unspecified)	2.86 µM (inactive)	1.85 µM (inactive)	1.45 µM (inactive)	2.15 µM (inactive)	1.35 µM (inactive)	2.94 µM (inactive)	1.6 µM (inactive)	6.04 µM (inactive)	1.23 µM (inactive)	2.92 µM (inactive)	2.22 µM (inactive)	1.5 µM (inactive)	0.783 µM (active)	2.09 µM (inactive)	1.06 µM (active)	1.26 µM (inactive)	2.78 µM (inactive)	1.64 µM (inactive)
O=C(Cn1c(=O)oc2ccc(C(=O)c3ccccc3Cl)cc21)c1ccc([N+](=O)[O-])cc1	24.2 µM (inactive)	11.2 µM (inactive)	19.1 µM (inactive)	23.6 µM (inactive)	22.9 µM (inactive)	10.9 µM (inactive)	42 µM (inactive)	24.2 µM (inactive)	31.1 µM (inactive)	21.9 µM (inactive)	17.8 µM (inactive)	18.4 µM (inactive)	17.7 µM (inactive)	9.51 µM (inactive)	25.4 µM (inactive)	25.1 µM (inactive)	29.9 µM (inactive)	17 µM (inactive)
O=C(O)CN1CCNCCN(CC(=O)O)CC1	2.38 µM (inactive)	3.08 µM (inactive)	> 100 µM (inactive)	10.2 µM (inactive)	3.73 µM (inactive)	38.8 µM (inactive)	> 100 µM (inactive)	12.5 µM (inactive)	15.2 µM (inactive)	38.4 µM (inactive)	3.36 µM (inactive)	25.7 µM (inactive)	11.6 µM (inactive)	7.23 µM (inactive)	3.25 µM (inactive)	> 27.7 µM (inactive)	28.2 µM (inactive)	6.49 µM (inactive)
O=C1Nc2cccc(C(F)(F)F)c2/C1=N/Nc1ccccc1[N+](=O)[O-]	36.4 µM (inactive)	32.9 µM (inactive)	> 100 µM (inactive)	33.9 µM (inactive)	14.4 µM (inactive)	16.9 µM (inactive)	33 µM (inactive)	11.6 µM (inactive)	10.3 µM (inactive)	30.2 µM (inactive)	37.6 µM (inactive)	> 100 µM (inactive)	18.7 µM (inactive)	11.4 µM (inactive)	22.1 µM (inactive)	25.1 µM (inactive)	21 µM (inactive)	17.5 µM (inactive)
Clc1ccc(C2=Cc3nc2c(-c2ccccc2)c2ccc([nH]2)c(-c2ccccc2)c2nc(c(-c4ccccc4)c4ccc([nH]4)c3-c3ccccc3)C=C2)cc1	> 62.5 µM (inactive)	> 62.5 µM (inactive)	> 62.5 µM (inactive)	> 62.5 µM (inactive)	> 62.5 µM (inactive)	> 62.5 µM (inactive)	> 62.5 µM (inactive)	> 62.5 µM (inactive)	> 62.5 µM (inactive)	> 62.5 µM (inactive)	> 62.5 µM (inactive)	> 62.5 µM (inactive)	> 62.5 µM (inactive)	> 62.5 µM (inactive)	> 62.5 µM (inactive)	> 62.5 µM (inactive)	> 62.5 µM (inactive)	> 62.5 µM (inactive)
O=[N+]([O-])c1ccc(Cl)c(CNc2ncnc3c2ncn3C2CCCCO2)c1 (stereo unspecified)	32.4 µM (inactive)	26.8 µM (inactive)	41.2 µM (inactive)	22 µM (inactive)	17.1 µM (inactive)	54.1 µM (inactive)	29.1 µM (inactive)	77.1 µM (inactive)		36.5 µM (inactive)	43.2 µM (inactive)	28.2 µM (inactive)	13.9 µM (inactive)	38.6 µM (inactive)	31.8 µM (inactive)	48.4 µM (inactive)	32.5 µM (inactive)	34.3 µM (inactive)
O=C(CC(=O)Nc1ccccc1Cl)NNC(Sc1ccccc1)c1cc(/N=N/c2ccc(Br)cc2)ccc1O (stereo unspecified)	> 10 µM (inactive)	0.315 µM (active)	1.66 µM (inactive)	1.14 µM (inactive)	0.681 µM (active)	1.86 µM (inactive)	2.28 µM (inactive)	3.29 µM (inactive)	2.37 µM (inactive)	3.03 µM (inactive)	0.387 µM (active)	0.785 µM (active)	2.06 µM (inactive)	1.23 µM (inactive)	1.85 µM (inactive)	2.56 µM (inactive)	1.59 µM (inactive)	0.404 µM (active)
CCCCCCCCCCCCCCCCCCNc1ccn(C2OC(COP(=O)(O)OCC3OC(n4cc(C)c(=O)[nH]c4=O)CC3F)C(O)C2O)c(=O)n1 (stereo unspecified)	7.69 µM (inactive)	5.46 µM (inactive)	5.19 µM (inactive)	13.2 µM (inactive)	9.46 µM (inactive)	9.02 µM (inactive)	11.4 µM (inactive)	10.3 µM (inactive)	10.4 µM (inactive)	8.63 µM (inactive)	10.2 µM (inactive)	8.17 µM (inactive)	7.91 µM (inactive)	3.52 µM (inactive)	8.65 µM (inactive)	9.75 µM (inactive)	7.26 µM (inactive)	7.24 µM (inactive)
O=C(O)CN1CCNCCN(CC(=O)O)CCN(CC(=O)O)CCNCC1	26.7 µM (inactive)	25.9 µM (inactive)	> 100 µM (inactive)	> 100 µM (inactive)	69.8 µM (inactive)	> 100 µM (inactive)	> 100 µM (inactive)	> 100 µM (inactive)	> 100 µM (inactive)	> 100 µM (inactive)	35.2 µM (inactive)	> 100 µM (inactive)	> 100 µM (inactive)	> 100 µM (inactive)		> 100 µM (inactive)	> 100 µM (inactive)	76 µM (inactive)
COc1ccc(Cc2ccc3nc(O)cc(C)c3c2)cc1S(=O)(=O)O	> 100 µM (inactive)	> 100 µM (inactive)	> 100 µM (inactive)	> 100 µM (inactive)	> 100 µM (inactive)	> 100 µM (inactive)	> 100 µM (inactive)	> 100 µM (inactive)	> 100 µM (inactive)	> 100 µM (inactive)	> 100 µM (inactive)	> 100 µM (inactive)	> 100 µM (inactive)	> 100 µM (inactive)	> 100 µM (inactive)	> 100 µM (inactive)	> 100 µM (inactive)	> 100 µM (inactive)
